In patent US10450266B2, “Sulfonate compound, photoacid generator, and resin composition for photolithography” (SAN-APRO LIMITED, priority 2014, dated 2019):

Key:
Type in all cases: physicochemical
[1] = Molar extinction coefficient at i-line (365 nm), UV-visible spectrophotometer; details: 365 nm (i-line), 0.25 mmol/L in acetonitrile, 1 cm cell
Experimental: The synthesized photoacid generator was diluted to 0.25 mmol/L with acetonitrile, and using an ultraviolet-visible spectrophotometer (UV-2550 available from SHIMADZU CORPORATION), the absorbance in a range of 200 nm to 500 nm was measured with a cell having an optical path length (a cell length) of 1 cm. The molar extinction coefficient of i-line (365 nm) (ε365) was calculated from the following equation. ε365(L·mol^−1·cm^−1)=A365/(0.00025 mol/L×1 cm) [In the equation, A365 represents the absorbance at 365 nm.] <Resist Curing Properties>

[2] = Thermal decomposition temperature (TG/DTA, 2% weight reduction); details: point of 2% weight reduction, 10° C./minute, nitrogen atmosphere
Experimental: The synthesized photoacid generator was measured for the change in weight under a temperature increasing condition of 10° C./minute from 30° C. to 500° C. under a nitrogen atmosphere using a thermal gravimetric/differential thermal analyzer (TG/DTA 6200, available from Seiko Instruments Inc.), and a point where the weight was reduced by 2% was defined as the thermal decomposition temperature.

Solvent solubility = details: for Solvent solubility, PGMEA / Solvent solubility, Butyl acetate / Solvent solubility, Toluene: 25° C.
Experimental: In a test tube, 0.1 g of the synthesized photoacid generator was placed, and an organic solvent (butyl acetate, toluene or PGMEA) was added thereto in 0.2 g portions under a condition where the temperature was adjusted to 25° C. until the photoacid generator was completely dissolved. In this connection, in the case where the photoacid generator was not completely dissolved even when 20 g of the solvent was added, the photoacid generator was evaluated as one that was not dissolved.

Molar extinction coefficient [1] [L/mol/cm] | Thermal decomposition temperature [2] [°C] | Solvent solubility, PGMEA (Solvent solubility) [wt %] | Solvent solubility, Butyl acetate (Solvent solubility) [wt %] | Solvent solubility, Toluene (Solvent solubility) [wt %] | solubility to a solvent (in words) (Solvent solubility; summary of Table 1) | Compound
360 | 225 | 15 | 15 | 10 | – | COc1cc2c(OC)cccc2cc1C(=O)N(C)OS(=O)(=O)CC12CCC(CC1=O)C2(C)C (stereo not shown) [A-3]
400 | 225 | 10 | 10 | 10 | – | COc1cc2c(OC)cccc2cc1C(=O)N(C)OS(=O)(=O)c1c(F)c(F)c(F)c(F)c1F [A-5]
80 | 230 | 20 | 20 | 12 | – | CN(OS(=O)(=O)CC12CCC(CC1=O)C2(C)C)C(=O)c1ccc2ccccc2c1 (stereo not shown) [A-1]
330 | 225 | 0.5 | 1 | 0.5 | insufficient | CC1(C)C2CCC1(CS(=O)(=O)OC1C(=O)c3cccc4cccc(c34)C1=O)C(=O)C2 (stereo not shown) [A′-1, reference compound]
120 | 225 | 15 | 15 | 10 | – | COc1ccc2cc(C(=O)N(C)OS(=O)(=O)CC34CCC(CC3=O)C4(C)C)ccc2c1 (stereo not shown) [A-2]
450 | 210 | 15 | 15 | 10 | – | CC(=O)c1ccc(Sc2ccc(C(=O)N(C)OS(=O)(=O)CC34CCC(CC3=O)C4(C)C)cc2)cc1 (stereo not shown) [A-6]
300 | 225 | 20 | 20 | 10 | – | COc1cc2c(OC)cccc2cc1C(=O)N(C)OS(C)(=O)=O [A-4]
9000 | 240 | 5 | 5 | 10 | – | CN(OS(=O)(=O)CC12CCC(CC1=O)C2(C)C)C(=O)c1c2ccccc2cc2ccccc12 (stereo not shown) [A-8]
6500 | 220 | 15 | 15 | 10 | – | COc1ccc2cc(C(=O)N(C)OS(=O)(=O)CC34CCC(CC3=O)C4(C)C)c(=O)oc2c1 (stereo not shown) [A-7]
